# Reference: paper PMC8279406 (Journal of Medicinal Chemistry, 2021)
# Experiments:
# human αvβ8 integrin = target: T1, human αvβ8 integrin (Homo sapiens, UniProt P06756+P26012); experiment: LAP(TGF-β1)-αvβ8 competitive solid-phase ELISA binding assay; settings: for IC50: competitive ELISA, immobilized LAP, soluble integrin
# T1 construct: purchased R&D Systems (Biotechne brand) 4135-AV
# Experimental: (§1) The affinity and selectivity of the integrin peptide ligands were ascertained according to a modified method previously reported by some of us.[33],[47] The binding was determined in a competitive solid-phase binding assay using extracellular matrix proteins, soluble integrins, and pertinent integrin-specific antibodies in an enzyme-linked immunosorbent assay (ELISA).
# The experimental procedure is as described for the αvβ6 assay, except for the following modifications. The plates were coated, washed, and blocked as described above. Soluble integrin αvβ8 was mixed with an equal volume of serially diluted inhibitors resulting in a final integrin concentration of 0.25 μg/mL and 0.0032–10 μM for the inhibitors. The primary and secondary antibodies are the same as in the integrin αvβ6 assay. Visualization and analysis were performed as described above. Each plate contained a linear peptide ([…]) as the internal standard.[3]
# integrin β8 = tested on: T2, integrin β8; experiment: Integrin internalization assay, surface integrin β8 by flow cytometry; assay type: cell-based, human; settings: J cells with nectin1, αvβ6 and αvβ8, 700 μM, 1 h at 37 °C
# T2 construct: expressed in transfected cells; host or cells: J cells (derivatives of BHK-TK2 hamster cells)
# Excerpt: Therefore, another mechanism might be responsible for the activity of 6 on J cells expressing αvβ8 integrin alone as well as the higher activity of 6 than that of 1 in cells that express both αvβ6 and αvβ8.[38] Thus, we hypothesized that 6 can prevent HSV-1 entry into J cells expressing nectin1 and the αvβ8 integrin alone by inducing internalization of the integrin itself. To validate our hypothesis, J cells were transfected with nectin1 and the two integrins αvβ6 and αvβ8 in the above-described manner. Then, 48 h after transfection, the cells were incubated for 60 min at 37 °C with 1 or 6. The surface expression of integrin β6 and β8, in the presence or the absence of peptides, was then evaluated by flow cytometry using FAB4155A (mAbβ6) and FAB4775A (mAbβ8) monoclonal antibodies that recognize other integrin regions than the RGD-binding domain.
# Figure 5 Integrin internalization assay. J cells were transfected with a low amount (75 ng of DNA/24 well) of nectin1 plus αvβ6 integrin (300 ng of DNA/24 well) and αvβ8 integrin (300 ng of DNA/24 well). Then, 48 h after transfection, the cells were exposed to 700 μM peptides for 1 h at 37 °C. […] Integrin and nectin1 surface expression levels were quantified as flow cytometry expression of the APC mean fluorescence intensity (MFI) of gated cells. […]
# human αvβ6 integrin = target: T3, human αvβ6 integrin (Homo sapiens, UniProt P06756+P18564); experiment: LAP(TGF-β1)-αvβ6 competitive solid-phase ELISA binding assay; settings: immobilized LAP, soluble integrin
# T3 construct: using immobilized ECM protein and soluble integrin; purchased R&D Systems (Biotechne brand) 3817-AV
# Experimental: as §1
# A flat-bottom 96-well ELISA plate was coated overnight at 4 °C with 100 μL/well of 0.4 μg/mL LAP previously diluted in carbonate buffer (15 mM Na2CO3, 35 mM NaHCO3, pH 9.6). Afterward, each well was then washed three times with 200 μL of PBS-T buffer (137 mM NaCl, 2.7 mM KCl, 10 mM Na2HPO4, 2 mM KH2PO4, 0.01% Tween 20, pH 7.4) and blocked for 1 h at room temperature with 150 μL/well TSB buffer (20 mM Tris–HCl, 150 mM NaCl, 1 mM CaCl2, 1 mM MgCl2, 1 mM MnCl2, pH 7.5, 1% BSA). Then, each well was washed three times with 200 μL of PBS-T.
# Equal volumes (50 μL) of the internal standard (or test compounds) were mixed with 0.5 μg/mL human integrin αvβ6 (50 μL) giving a final dilution series in TSB buffer of 0.00064–10 μM for the inhibitors and 0.25 μg/mL for integrin αvβ6. These solutions (100 μL/well) were added to the flat-bottom ELISA plate and incubated for 1 h at room temperature. The solutions were discarded from the wells, and the plate was washed three times with PBS-T buffer (3 × 200 μL). […] The solutions were discarded from the wells, and the plate was washed three times with PBS-T (3 × 200 μL). The binding assay was developed by adding 50 μL/well of the 3,3′,5,5′-tetramethylbenzidine (TMB) liquid substrate system and incubating for 1 min at room temperature. The reaction was stopped by adding 50 μL/well of 3 M H2SO4. The peroxidase product formation was detected by measuring the absorbance at […] using a plate reader (Tecan SpectraFLUOR plus, Männedorf, Switzerland). Each compound concentration was tested in duplicate, and the resulting inhibition curves were analyzed using OriginPro 7.5G software; the inflection point describes the IC50 value. Each plate contained a linear peptide ([…]) as the internal standard.[63]
# human αvβ3-integrin = target: T4, human αvβ3-integrin (Homo sapiens, UniProt P05106+P06756); experiment: Vitronectin-αvβ3 competitive solid-phase ELISA binding assay
# T4 construct: purchased R&D Systems (Biotechne brand) 3050-AV
# Experimental: as §1
# The experimental procedure was as described for the αvβ6 assay, except for the following modifications. The plates were coated with 100 μL/well of 1.0 μg/mL vitronectin in carbonate buffer, washed, and blocked as described above. […] As a primary antibody, 100 μL/well of 2.0 μg/mL primary antibody (mouse antihuman CD51/61) was used. The secondary antibody used was the same as that used for the integrin αvβ6 assay. Visualization and analysis were performed as described above.
# alphaVbeta5 = alphaVbeta5 (Homo sapiens, UniProt P06756+P18084); experiment: alphaVbeta5 binding affinities (supplementary CSV only); settings: unit inferred
# Excerpt: Supplement jm1c00533_si_002.csv, table | column: alphaVbeta5 Binding affinities (IC50)
Compound,fold more potent than 1 for αvβ8 (human αvβ8 integrin; 60 vs 174 nM),IC50 (human αvβ8 integrin),integrin β8 surface level (in words) (integrin β8),IC50 (human αvβ6 integrin),binding affinity for αvβ3 (in words) (human αvβ3-integrin),"IC50 (human αvβ3-integrin; competitive ELISA, immobilized vitronectin, soluble integrin)",IC50 (alphaVbeta5)
"CN1C(=O)[C@H](C2CCCCC2)NC(=O)[C@H](CC(=O)O)NC(=O)CNC(=O)[C@H](CCCNC(=N)N)NC(=O)CC[C@H]1C(N)=O [compound 6, [Arg-Gly-Asp-Chg-(NMe)Glu]-CONH2]",3 fold,60 ± 2 nM,reduced,1.6 ± 0.1 nM,no significant binding affinity,1200 ± 121 nM,> 5000 nM
"N=C(N)NCCC[C@@H]1NC(=O)CC[C@@H](C(N)=O)NC(=O)[C@H](C2CCCCC2)NC(=O)[C@H](CC(=O)O)NC(=O)CNC1=O [compound 1, [Arg-Gly-Asp-Chg-Glu]-CONH2]",–,174 ± 31 nM,–,–,–,–,> 5000 nM
